Measurements taken from a melting point compilation (Tetko et al.).

details: a range is the spread between reports

SMILES | melting point
CN(C)C(N)=O | 180 to 184 °C
O=C(Cc1ccccc1)Cc1ccccc1 | 32 to 35 °C
CCCCCCCCCCCCCCCCCCCCCCCCCC | 56.4 to 57 °C
CC(=O)NC(=O)CN | 138 to 142 °C
c1ccc2c(c1)CCc1ccccc1N2 | 106 to 107 °C
Clc1ccc2ccccc2n1 | 36 to 38 °C
COc1ccc(C=O)c(OC)c1 | 69 to 72 °C
N#CCc1ccc(I)cc1 | 48 to 53 °C
Cc1ccc(N)cc1Br | 26 to 27 °C
CCOP(=O)(OCC)OCC | -56.4 to -56 °C
Nc1ccc(Cc2ccc(N)cc2)cc1 | 90 to 92.5 °C
COc1ccc2c3c1O[C@H]1[C@@H](O)C=C[C@H]4[C@@H](C2)N(C)CC[C@@]341 | 155 to 158 °C
O=c1ccc2ccc(O)cc2o1 | 230 °C
CC(C)C(C)(C)C(C)(C)C | -36.4 to -36 °C
CC(C)=NO | 61 to 62 °C
O=C(c1ccccc1)C(Cl)Cl | 20.5 to 21 °C
O=C(O)c1ccsc1 | 138 to 139 °C
Nc1c(F)c(F)cc(F)c1F | 31 to 31.5 °C
COC(=O)c1ccc(OC)cc1 | 49 to 50 °C
COc1cc(C)ccc1O | 5.5 to 6 °C
CCC(C)(CO)CO | 40.3 to 44 °C
Cc1ccc(Cc2ccc(C)cc2)cc1 | 28 to 29 °C
CCNc1nc(Cl)nc(NCC)n1 | 226 to 228 °C

SMILES | melting point
BrCCCOc1ccccc1 | 10 to 10.7 °C
CCOC(=O)C#CC(=O)OCC | 1.5 to 2 °C
CC(=O)Oc1ccc(-c2ccc(OC(C)=O)cc2)cc1 | 161 to 164 °C
O=S=O | -73 to -72 °C
C=COCC | -116 to -115 °C
Oc1ccc(Cl)cc1Cl | 42 to 45 °C
Oc1ccc(NCc2ccccc2)cc1 | 84 to 88 °C
O=C(O)C(Br)(Br)Br | 132 °C
COc1ccc2c(c1OC)C(=O)OC2 | 101 to 102 °C
Cc1ccc(C)c(O)c1 | 74 to 76 °C
CS(=O)(=O)OCCCCOS(C)(=O)=O | 116 °C
CC(C)(C)I | -38.2 to -38 °C
CN(C)CC(=O)O | 181 to 186 °C
c1cc[nH]c1 | -23.4 °C
CC(C)CCCCC(C)C | -55 to -54 °C
CC(C)(C)OC(=O)CCC(Cl)(Cl)Cl | 20 °C
CC(C)(C)C(C)(C)C | 101 °C
Cn1ccnc1S | 146 to 147 °C
Cn1c(=O)n(C)c(=O)n(C)c1=O | 176 °C
Nc1ccccc1C=O | 38 to 39 °C
CC1CCC(C)(C)C1 (stereo not drawn) | -142 °C
COc1cc(N)ccc1C | 56.5 to 58 °C
CC#CC#CC | 67 to 67.8 °C

SMILES | melting point
O=C(O)c1cccc(I)c1 | 187 to 188 °C
O=C(c1ccc(Br)cc1)c1ccc(Br)cc1 | 174 to 177 °C
O=c1cc(CO)occ1O | 154 °C
CC(C)(O)C(C)(C)O | 43 to 44 °C
c1ccc2c(c1)OCCOCCOc1ccccc1OCCOCCO2 | 162 to 163 °C
Nc1c(Cl)cc(Cl)cc1Br | 80 to 83.5 °C
CC(=O)C(C)(C)C | -53 to -52 °C
Fc1cccc2ccccc12 | -13 to -9 °C
CC(=O)OCc1ccccc1 | -51.3 to -51 °C
CCCCCCCCC(=O)CCCCCCCC | 52 to 53 °C
COC(N)=O | 54 to 55 °C
C=C(C(=O)O)C(F)(F)F | 50 to 51.5 °C
CC(N)=O | 79 to 81 °C
Oc1nc2ccccc2s1 | 138 to 139 °C
O=C(O)CCCCCc1ccccc1 | 18 to 23 °C
O=C=Nc1ccc(Cc2ccc(N=C=O)cc2)cc1 | 37.2 to 38 °C
NNc1cc(Cl)ccc1Cl | 102 to 104 °C
c1cc2c3c(c1)ccc1cccc(c13)C2 | 114 to 116 °C
O=c1c(O)c(-c2ccccc2)oc2ccccc12 | 170 to 172 °C
CCCCCCOCCO | -45.1 to -42 °C
N#CCc1ccccc1C(F)(F)F | 30 to 33 °C
CC(C)(C)C(O)C(Oc1ccc(Cl)cc1)n1cncn1 (stereo not drawn) | 134 to 138 °C
